Patent US20100144779A1, “Marine Alkalod Makaluvamines and Derivatives Thereof” (THE UAB RESEARCH FOUNDATION, priority 2007, published 2010)
Entries after “also recorded” stand apart in the source; their conditions may differ.

Experiments:
[1] = system: MDA-MB-468; test: XTT cytotoxicity assay; assay type: cell-based, human; details: average ± standard deviation of 2-4 independent assays, read-out: Inhibition of Cancer Cell Proliferation (IC50) MDA-MB-468
Protocol: (§1) In initial experiments, compounds 4a-g and 7c-g were evaluated for their cytotoxicity against human breast cancer cell lines MCF-7 and MDA-MB-468 and human colon cancer cell line HCT-116. The makaluvamine compounds provided in Table 2 were also evaluated for their cytotoxicity against human breast cancer cell lines MCF-7. Compound nos. 8 and 27-33 were not evaluated in this experiment. Cells were obtained from ATCC (Manassas, Va.). For each derivative the IC50 value was determined using data generated from 2-4 independent tetrazolium-based (XTT) cytotoxicity assays (R & D Systems Inc., Minneapolis, Minn.) according to the manufacturer's instructions. […] MCF-7, MDA-MD-468 and HCT-116 cells were grown at 37 degrees C. in a humidified atmosphere with complete growth media supplemented with fetal bovine serum. Growth media was changed 2-3 times per week as required.

[2] = system: MCF-7; test: XTT cytotoxicity assay; assay type: cell-based, human; details: XTT; average ± standard deviation of 2-4 independent assays; read-out: Inhibition of Cancer Cell Proliferation (IC50) MCF-7
Protocol: as §1

[3] = system: HCT-116; test: XTT cytotoxicity assay; assay type: cell-based, human; details: average ± standard deviation of 2-4 independent assays, read-out: Inhibition of Cancer Cell Proliferation (IC50) HCT-116
Protocol: as §1

[4] = biological target: T1, topoisomerase II (Homo sapiens, UniProt P11388); test: Topoisomerase II drug screening kit (relaxation of plasmid DNA); assay type: biochemical; parameters: key to Topoisomerase II Inhibition: — none; + low; ++ moderate; +++ strong; details: for Topoisomerase II Inhibition: 100 μM drug compound, topoisomerase II (4U), 500 ng plasmid DNA; for inhibition of topoisomerase II catalytic activity (in words): 100 μM makaluvamine derivative
T1 construct: purchased TopoGEN, Inc., Port Orange, Fla
T1 sequence (P11388 whole entry): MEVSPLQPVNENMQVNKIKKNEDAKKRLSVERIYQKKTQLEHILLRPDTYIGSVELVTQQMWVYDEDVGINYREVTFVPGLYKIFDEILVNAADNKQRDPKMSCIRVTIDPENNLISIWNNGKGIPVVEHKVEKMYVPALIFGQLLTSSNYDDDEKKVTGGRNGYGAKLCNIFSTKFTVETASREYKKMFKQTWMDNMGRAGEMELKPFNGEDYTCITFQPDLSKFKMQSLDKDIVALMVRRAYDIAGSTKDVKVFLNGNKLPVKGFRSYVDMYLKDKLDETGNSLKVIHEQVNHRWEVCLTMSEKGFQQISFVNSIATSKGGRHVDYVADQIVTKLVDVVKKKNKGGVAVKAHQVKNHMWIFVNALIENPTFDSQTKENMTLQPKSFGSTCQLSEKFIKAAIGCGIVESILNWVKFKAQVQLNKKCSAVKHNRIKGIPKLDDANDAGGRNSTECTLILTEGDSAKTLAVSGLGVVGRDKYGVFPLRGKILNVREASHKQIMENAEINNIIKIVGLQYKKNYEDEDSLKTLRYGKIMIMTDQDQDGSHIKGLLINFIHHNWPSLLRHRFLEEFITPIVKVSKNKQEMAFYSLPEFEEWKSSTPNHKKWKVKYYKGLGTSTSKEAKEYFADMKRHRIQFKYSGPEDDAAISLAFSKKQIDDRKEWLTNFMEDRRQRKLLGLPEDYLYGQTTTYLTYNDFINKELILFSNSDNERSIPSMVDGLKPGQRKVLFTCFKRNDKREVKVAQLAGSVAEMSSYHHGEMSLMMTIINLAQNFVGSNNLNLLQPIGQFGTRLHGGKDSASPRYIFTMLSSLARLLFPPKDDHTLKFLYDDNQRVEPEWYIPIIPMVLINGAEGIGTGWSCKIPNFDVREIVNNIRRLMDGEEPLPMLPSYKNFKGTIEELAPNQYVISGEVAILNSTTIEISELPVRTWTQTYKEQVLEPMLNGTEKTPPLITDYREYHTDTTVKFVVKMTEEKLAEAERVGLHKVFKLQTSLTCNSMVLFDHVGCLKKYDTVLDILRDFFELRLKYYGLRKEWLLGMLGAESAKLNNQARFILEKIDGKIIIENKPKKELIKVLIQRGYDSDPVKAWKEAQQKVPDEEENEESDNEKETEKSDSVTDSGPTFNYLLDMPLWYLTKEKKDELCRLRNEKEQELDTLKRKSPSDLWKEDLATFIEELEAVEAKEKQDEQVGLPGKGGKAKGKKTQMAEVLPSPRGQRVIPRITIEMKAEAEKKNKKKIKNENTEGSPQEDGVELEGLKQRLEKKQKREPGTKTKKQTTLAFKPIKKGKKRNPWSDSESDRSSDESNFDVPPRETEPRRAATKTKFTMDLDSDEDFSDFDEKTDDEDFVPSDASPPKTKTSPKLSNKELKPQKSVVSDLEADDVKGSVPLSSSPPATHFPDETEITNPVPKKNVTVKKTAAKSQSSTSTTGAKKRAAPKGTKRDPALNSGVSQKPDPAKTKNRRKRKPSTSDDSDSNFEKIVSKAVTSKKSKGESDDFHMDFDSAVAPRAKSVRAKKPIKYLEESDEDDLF
Text: In order to determine the effect of the makaluvamine derivatives of the present disclosure, the synthesized makaluvamine derivatives were screened for their ability to inhibit topoisomerase II activity in vitro. Topoisomerase II functions by generating a double-stranded DNA break followed by resealing of the break. Topoisomerase II inhibitors interfere with the breakage-rejoining reaction thereby trapping the enzyme in a cleavage complex. In order to determine if the disclosed makaluvamine derivatives inhibited topoisomerase II activity, nine of the derivatives were tested for topoisomerase II inhibitory activity using a topoisomerase-II drug screening kit (TopoGEN, Inc., Port Orange, Fla.) according to the manufacturer's instructions. The screening kit uses a supercoiled plasmid DNA substrate (pRYG) which contains one topoisomerase II cleavage/recognition site. […] Relaxed DNA was separated using non-ethidium bromide (EtBr) agarose gels, then stained with EtBr and quantified using Kodak Gel Logic Imaging System and Molecular Imaging software (Eastman Kodak Co., Rochester, N.Y.). Inhibition of relaxation of plasmid DNA or catalytic activity was reported as; − none, + low, ++ moderate, or +++ strong.

[5] = system: p21; test: Protein expression, Western blot in MCF-7 cells; assay type: cell-based, human; details: 1 μM, 6 h (FIG. 4A)
Protocol: (§2) In FIG. 4A, MCF-7 cells were exposed to 1 μM concentration of the indicated compounds for 6 hours. Western blots were probed with antibodies specific for the proteins indicated. Numbers below each lane show densitometry readings for each lane as compared to control. […] Western blots were probed with antibodies specific for the proteins indicated.
(§3) To determine the disclosed compounds effect on protein expression in human breast cancer cells, cultured MCF-7 cells were exposed to various concentrations of the test compounds for 6 h (FIG. 4A) or 24 h (FIG. 4B). Cell lysates were fractionated with identical amounts of protein by SDS-PAGE and transferred to Bio-Rad trans-Blot nitrocellulose membranes (Bio-Rad Laboratories, Hercules, Calif.). The nitrocellulose membrane was incubated in blocking buffer (Tris-buffered saline containing 0.1% Tween 20 and 5% nonfat milk) for 1 h at room temperature, then with the appropriate primary antibody overnight at 4° C. or 2 h at room temperature with gentle shaking. Finally, the membrane was washed three times with the washing buffer (Tris-buffered saline containing 0.1% Tween 20) for 15 min, incubated with goat anti mouse/rabbit IgG-horseradish peroxidase-conjugated antibody (Bio-Rad) for 1 h at room temperature, and washed again (in triplicate). The protein of interest was detected by enhanced chemiluminescence reagents from PerkinElmer LAS, Inc (Boston, Mass.).

[6] = system: MDM2; test: Protein expression, Western blot in MCF-7 cells; assay type: cell-based, human; details: 1 μM, 6 h (FIG. 4A)
Protocol: as §2, §3

[7] = system: p53; test: Protein expression, Western blot in MCF-7 cells; assay type: cell-based, human; details: 1 μM, 6 h (FIG. 4A)
Protocol: as §2, §3

[8] = system: MCF7 cells; test: MTT growth inhibition assay; assay type: cell-based, human; details: Table 5, MTT, 72 hr; for IC50: read-out: Growth inhibitory activity (IC50) in MCF7 cells
Protocol: The cell lines were obtained from the American Type Culture Collection (Rockville, Md.) and were grown as follows: MCF-7 (p53 wt) breast cancer cells were grown in DMEM media containing 1 mM non-essential amino acids, Earle's BSS, 1 mM Na pyruvate, and 10 mg/L bovine insulin.
All media contained 10% FBS and 1% penicillin/streptomycin unless otherwise specified. The effects of disclosed compounds on human cancer cell growth, expressed as the percentage of cell survival, were determined by the MTT [3-(4,5-Dimethyl-2-thiazolyl)-2,5-diphenyl-2H-tetrazolium bromide] assay. Cells were grown in 96-well plates and exposed to the test compounds (0, 0.01, 0.1, 1, 10, 100 μM) for 72 hr followed by addition of 10 μL MTT solution (5 mg/mL; Sigma; St. Louis, Mo.) to each well. The plates were incubated for 2-4 hr at 37° C. The supernatant was then removed and formazan crystals were dissolved with 100 μL of DMSO. The absorbance at 570 nm was recorded with an OPTImax microplate reader (Molecular Devices; Sunnyvale, Calif.). The cell survival percentages were calculated by dividing the mean OD of compound containing wells by that of DMSO-control wells. Three separate experiments were accomplished to determine the IC50.

Compound	IC50 [1] [nM]	IC50 [2] [nM]	IC50 [3] [nM]	Topoisomerase II Inhibition [4]	expression of p21 [5]	expression of MDM2 [6]	expression of p53 [7]	Growth inhibitory activity (IC50) in MCF7 cells [8]	IC50 [8] [nM]	inhibition of topoisomerase II catalytic activity (in words) [4]
CCNC1=CC2=NCCc3c[nH]c(c32)C1=O [Compound 4b]	400 ± 30	1300 ± 300	3600 ± 700	—						
O=C1C(NCCc2cc(Br)c(O)c(Br)c2)=CC2=NCCc3c[nH]c1c32 [Compound 4f]	4500 ± 800	13200 ± 3100	14400 ± 1200	+++	increased the expression	increased the expression	increased the expression	μM range	2720	comparable to etoposide and m-AMSA; also recorded: strongest inhibition
O=C1C(NCCc2c[nH]c3ccccc23)=CC2=NCCc3c[nH]c1c32 [Compound 4g]	400 ± 10	1600 ± 200	5200 ± 800	—						
Cc1ccc(S(=O)(=O)n2cc3c4c2C(=O)C(NCc2ccccc2)=CC4=NCC3)cc1 [Compound 7c]	1000 ± 10	1800 ± 200	2700 ± 1500	+++	decreased the expression	inhibited the expression	increased the expression	μM range	1200	comparable to etoposide and m-AMSA; also recorded: strongest inhibition
COc1cc(NS(C)(=O)=O)ccc1Nc1c2ccccc2nc2ccccc12 [m-AMSA, reference compound]	8500	21700	700	++						
